Our source for the TGI and GI50 values is PubChem BioAssay (NCI).

Common to all, as to experiment: NCI tumour cell line growth inhibition, 48 h
Assay [1] has as its system MDA-MB-231 breast.
Assay [2] has as its system SNB-19 CNS.
Assay [3] relates to IGROV1 ovarian.
For assay [4], the system named is NCI-H23 lung.
Assay [5] has as its system RPMI-8226 leukemia.
The test system of assay [6] is MCF7 breast.
Assay [7] deals with SK-MEL-2 melanoma.
The subject of assay [8] is SF-539 CNS.
The subject of assay [9] is T-47D breast.
Assay [10] deals with LOX IMVI melanoma.
The test system of assay [11] is K-562 leukemia.
Assay [12] concerns UO-31 renal.

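Results reflect a 48-hour exposure of cells in 96-well plates to compound at five concentrations. Here, GI50 denotes the concentration required for 50% inhibition of growth. TGI denotes the concentration required for complete inhibition of growth.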 Some results are limits rather than exact numbers.

Take `FC1(F)ON2CCc3ccccc3C2[C@H]1c1ccccc1` (some centres undefined): the TGI in [1], in assay [2], in assay [3], in [4], in assay [5] and in assay [6] was more than 100 µM in each case. Besides, the TGI in [7], in assay [8], in [9], in [10], in assay [11] and in assay [12] was more than 100 µM in each case. Moreover, the GI50 in assay [2], in [3], in [4], in [5], in [6] and in assay [7] was more than 100 µM throughout. For the same molecule, the GI50 in [11] is more than 100 µM.

For `COC(=O)[C@H](Cc1ccccc1)NC(=O)c1ccc(CNC(=O)/C=C/c2ccc(OCc3ccccc3)cc2)cc1`, the TGI was 47 µM in assay [1]; 36.8 µM in [2]; 9.66 µM in [3]; 33.5 µM in assay [4]; more than 100 µM in assay [5]; more than 100 µM in [6]. The TGI is 7.92 µM in assay [7]; 51.9 µM in assay [8]; 72.2 µM in assay [9]; more than 100 µM in assay [10]; more than 100 µM in assay [11]; 29.5 µM in [12].

Consider `O=S(=O)(O)c1ccc(N=Nc2ccccc2)cc1`, for which the TGI in [1], in [2], in assay [3], in assay [4], in assay [5] and in assay [6] was more than 100 µM each time. Besides, the TGI in assay [7], in assay [8], in assay [9], in assay [10], in assay [11] and in assay [12] was more than 100 µM throughout.

Regarding `CN(O)C(=O)CCC(NC(=O)CCC(N)C(=O)O)C(=O)NCC(=O)O` (centres undefined), the TGI in [1], in assay [2], in assay [3], in [4], in assay [5] and in assay [6] was more than 100 µM each time. For the same molecule, the TGI in assay [7], in assay [8], in [9], in [10], in assay [11] and in assay [12] was more than 100 µM in each case.

For `S=C(NCc1ccccc1)Nc1sc(=NCc2ccccc2)nc2sc3c(c12)CCN(N1CCc2c(sc4nc(=NCc5ccccc5)sc(NC(=S)NCc5ccccc5)c24)C1)C3`, the TGI in [1] is more than 44 µM; in assay [2] it was more than 64.2 µM; in assay [3], more than 100 µM; in assay [4] it was more than 83.4 µM; in [5] it was more than 100 µM; in assay [6], more than 62.2 µM. Further, the TGI in assay [7] was more than 81.8 µM; in [8] it was more than 45.9 µM; in assay [9] it was more than 61.3 µM; in assay [10] it was more than 100 µM; in assay [11], more than 100 µM; in assay [12], more than 60.8 µM.

Take `C#CC1(O)CCC2[C@@H]3CCc4cc(Oc5nc(F)nc(-c6c(C)c(C(=O)OCC)n7ccccc67)n5)ccc4C3CC[C@@]21C` (some centres undefined): the TGI in assay [1], in [2], in [3], in assay [4], in assay [5] and in assay [6] was more than 100 µM in each case. For the same molecule, the TGI in [7], in [8], in [9], in [10], in [11] and in [12] was more than 100 µM each time.

`Cc1nc(-c2ccccc2)cn2c1nc1ccccc12`: the TGI in [1] was more than 100 µM; in assay [2], more than 76.2 µM; in assay [3], 57.1 µM; in [4], more than 77.7 µM; in [5], more than 100 µM; in assay [6], 23.4 µM. In addition, the TGI is 43.5 µM in assay [7]; 53 µM in assay [8]; more than 24.9 µM in assay [9]; more than 31.6 µM in assay [10]; more than 100 µM in assay [11]; 46.5 µM in [12].

As to `C#C[C@]1(O)CC[C@H]2[C@@H]3CCC4=C/C(=N\OCCN5CCCCC5)CC[C@]4(C)[C@H]3CC[C@@]21C`, the TGI came to 29 µM in assay [1]; 19.1 µM in assay [2]; 19.1 µM in assay [3]; 17.5 µM in [4]; 15.3 µM in [5]; 15.6 µM in assay [6]. Further, the TGI was determined as 8.76 µM in assay [7]; 15.5 µM in assay [8]; 19.3 µM in assay [9]; 16.5 µM in assay [10]; 8.27 µM in assay [11]; 16 µM in [12].

Regarding `COC(=O)CCc1ccc(CCC(=O)OC)cc1`, the TGI in [1], in [2], in assay [3], in assay [4], in [5] and in assay [6] was more than 100 µM each time. In addition, the TGI in assay [7], in assay [8], in assay [9], in assay [10], in assay [11] and in [12] was more than 100 µM in each case.

Take `O=C(O)c1nc2cc(Cl)ccc2[nH]c1=O`: the TGI in assay [1], in assay [2], in [3], in [4], in assay [5] and in assay [6] was more than 100 µM in each case. The TGI in assay [7], in assay [8], in assay [9], in assay [10], in assay [11] and in [12] was more than 100 µM throughout.

Turning to `Cn1c(-c2ccco2)ccc1-c1ccc(C=O)o1`, the TGI in assay [1], in assay [2], in assay [3], in [4], in assay [5] and in [6] was more than 100 µM each time. Also, the TGI in assay [7] was more than 100 µM; in assay [8], 48.8 µM; in [9] it was more than 100 µM; in assay [10], more than 100 µM; in [11], more than 100 µM; in assay [12] it was more than 100 µM.
